Measured values reported in patent US12679843B2, “Pyrrolopyrimidine amines as complement inhibitors” (BioCryst Pharmaceuticals, Inc., priority 2020, dated 2026).

molecular target: Factor D (Homo sapiens, UniProt P00746); test: Factor D esterolytic assay (Z-Lys-SBzl thioester substrate, DTNB, 405 nm); assay type: biochemical; conditions: substrate Z-Lys-SBzl 1.29 mM, 100 mM HEPES, 500 mM NaCl, pH 7.5, 10% DMSO, tested a minimum of three times
In short: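 Human Factor D hydrolysis of Z-Lys-SBzl (1.29 mM) monitored at 405 nm via DTNB thiol detection for 600 s, 690 nm background subtracted. Buffer 100 mM HEPES, 500 mM NaCl, pH 7.5, 10% DMSO; substrate added immediately or after room-temperature preincubation. IC50 from percent inhibition of rate, at least three tests.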

Chain of Factor D (P00746 26-253): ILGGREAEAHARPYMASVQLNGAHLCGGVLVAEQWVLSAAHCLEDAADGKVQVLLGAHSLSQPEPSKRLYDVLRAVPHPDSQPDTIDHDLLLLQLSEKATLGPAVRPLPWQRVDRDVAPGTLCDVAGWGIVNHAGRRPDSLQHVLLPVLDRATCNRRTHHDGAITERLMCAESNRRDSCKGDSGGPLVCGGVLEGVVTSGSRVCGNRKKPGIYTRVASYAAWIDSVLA

SMILES	IC50 [µM]
CNc1ncnc2c1cnn2CC(=O)N1CCC[C@H]1C(=O)Nc1cccc(Br)n1 [Compound 75d, (S)—N-(6-bromopyridin-2-yl)-1-(2-(4-(methylamino)-1H-pyrazolo[3,4-d]pyrimidin-1-yl)acetyl)pyrrolidine-2-carboxamide]	> 1
Nc1ncnc2c1ncn2CC(=O)N1[C@@H]2C[C@@H]2C[C@H]1C(=O)OCc1ccccc1 [Compound 94b, (1R,3S,5R)-benzyl 2-(2-(6-amino-9H-purin-9-yl)acetyl)-2-azabicyclo[3.1.0]hexane-3-carboxylate]	> 1
Cc1ccc2c(c1)c1c(N)ncnc1n2C(C)C(=O)N1[C@@H]2C[C@@H]2C[C@H]1C(=O)Nc1cccc(Br)n1 (single isomer, unassigned) [Compound 22d]	> 1
CO[C@H]1C[C@@H](C(=O)Nc2cccc(Br)n2)N(C(=O)Cn2c3ccc(C(F)(F)F)cc3c3c(N)ncnc32)C1 [Compound 247d, (2S,4S)-1-(2-(4-amino-6-(trifluoromethyl)-9H-pyrimido[4,5-b]indol-9-yl)acetyl)-N-(6-bromopyridin-2-yl)-4-methoxypyrrolidine-2-carboxamide]	0.1 to 1
Cc1cc(O)cc2c3c(N)ncnc3n(CC(=O)N3[C@@H]4C[C@@H]4C[C@H]3C(=O)Nc3cccc(Br)n3)c12 [Compound 282a, (1R,3S,5R)-2-(2-(4-amino-6-hydroxy-8-methyl-9H-pyrimido[4,5-b]indol-9-yl)acetyl)-N-(6-bromopyridin-2-yl)-2-azabicyclo[3.1.0]hexane-3-carboxamide]	< 0.1
C[C@@]12C[C@@H](C(=O)Nc3cccc(Br)n3)N(C(=O)Cn3c4ncnc(N)c4c4cc(Br)cc(F)c43)[C@@H]1C2 [Compound 377a, (1R,3S,5R)-2-(2-(4-amino-6-bromo-8-fluoro-9H-pyrimido[4,5-b]indol-9-yl)acetyl)-N-(6-bromopyridin-2-yl)-5-methyl-2-azabicyclo[3.1.0]hexane-3-carboxamide]	< 0.1
COc1cc2c3c(N)ncnc3n(CC(=O)N3[C@@H]4C[C@@H]4C[C@H]3C(=O)Nc3cccc(Br)n3)c2cc1F [Compound 330f, (1R,3S,5R)-2-(2-(4-amino-7-fluoro-6-methoxy-9H-pyrimido[4,5-b]indol-9-yl)acetyl)-N-(6-bromopyridin-2-yl)-2-azabicyclo[3.1.0]hexane-3-carboxamide]	< 0.1
CC1CC(CNC(=O)[C@@H]2C[C@H]3C[C@H]3N2C(=O)Cn2cnc3c(N)ncnc32)C1 (stereo partly drawn) [Compound 100b, (1R,3S,5R)-2-(2-(6-amino-9H-purin-9-yl)acetyl)-N-((3-methylcyclobutyl)methyl)-2-azabicyclo[3.1.0]hexane-3-carboxamide]	> 1
Cc1ccc2c(c1)c1c(N)ncnc1n2CC(=O)N1[C@H](C(=O)Nc2cccc(Br)n2)C[C@@]2(C)C[C@@H]12 [Compound 8b, (1R,3S,5R)-2-(2-(4-amino-6-methyl-9H-pyrimido[4,5-b]indol-9-yl)acetyl)-N-(6-bromopyridin-2-yl)-5-methyl-2-azabicyclo[3.1.0]hexane-3-carboxamide]	< 0.1
CC(O)c1ccc2c(c1)c1c(N)ncnc1n2CC(=O)N1[C@@H]2C[C@@H]2C[C@H]1C(=O)Nc1cccc(Br)n1 (stereo partly drawn) [Compound 170c, (1R,3S,5R)-2-(2-(4-amino-6-(1-hydroxyethyl)-9H-pyrimido[4,5-b]indol-9-yl)acetyl)-N-(6-bromopyridin-2-yl)-2-azabicyclo[3.1.0]hexane-3-carboxamide]	< 0.1
Nc1ncnn2c(CC(=O)N3[C@@H]4C[C@@H]4C[C@H]3C(=O)NCc3cccc(Cl)c3F)ccc12 [Compound 66b, (1R,3S,5R)-2-(2-(4-aminopyrrolo[2,1-f][1,2,4]triazin-7-yl)acetyl)-N-(3-chloro-2-fluorobenzyl)-2-azabicyclo[3.1.0]hexane-3-carboxamide]	0.1 to 1
NC(=O)c1cnc2c(ccn2CC(=O)N2C[C@H](F)C[C@H]2C(=O)NCc2cccc(Cl)c2F)c1N [Compound 144g, 4-amino-1-(2-((2S,4R)-2-((3-chloro-2-fluorobenzyl)carbamoyl)-4-fluoropyrrolidin-1-yl)-2-oxoethyl)-1H-pyrrolo[2,3-b]pyridine-5-carboxamide]	0.1 to 1
Nc1ncnc2c1c1cc(C(F)(F)F)ccc1n2CC(=O)N1[C@@H]2C[C@@H]2C[C@H]1C(=O)Nc1cccc(Br)c1F [Compound 268b, (1R,3S,5R)-2-(2-(4-amino-6-(trifluoromethyl)-9H-pyrimido[4,5-b]indol-9-yl)acetyl)-N-(3-bromo-2-fluorophenyl)-2-azabicyclo[3.1.0]hexane-3-carboxamide]	< 0.1
O=C(NCc1cccc(Cl)c1F)[C@@H]1C[C@@H](F)CN1C(=O)Cn1ccc2c3[nH]c(=O)[nH]c(=O)c3cnc21 [Compound 145a, (2S,4R)—N-(3-chloro-2-fluorobenzyl)-1-(2-(2,4dioxo-3,4dihydro-1H-pyrrolo[3′,2′:5,6]pyrido[4,3-d]pyrimidin-7 (2H)-yl)acetyl)-4-fluoropyrrolidine-2-carboxamide]	0.1 to 1
Nc1ncnc2c1c1ncccc1n2CC(=O)N1[C@@H]2C[C@@H]2C[C@H]1C(=O)Nc1cccc(Br)n1 [Compound 31f, (1R,3S,5R)-2-(2-(4-amino-9H-pyrido[2′,3′:4,5]pyrrolo[2,3-d]pyrimidin-9-yl)acetyl)-N-(6-bromopyridin-2-yl)-2-azabicyclo[3.1.0]hexane-3-carboxamide]	< 0.1
COC(=O)c1cc(OC)c2c(c1)c1c(N)ncnc1n2CC(=O)N1[C@H](C(=O)Nc2cccc(Br)n2)C[C@@]2(C)C[C@@H]12 [Compound 241a, methyl 4-amino-9-(2-((1R,3S,5R)-3-((6-bromopyridin-2-yl)carbamoyl)-5-methyl-2-azabicyclo[3.1.0]hexan-2-yl)-2-oxoethyl)-8-methoxy-9H-pyrimido[4,5-b]indole-6-carboxylate]	< 0.1
COc1cc([N+](=O)[O-])cc2c3c(N)ncnc3n(CC(=O)N3[C@@H]4C[C@@H]4C[C@H]3C(=O)Nc3cccc(Br)n3)c12 [Compound 242g, (1R,3S,5R)-2-(2-(4-amino-8-methoxy-6-nitro-9H-pyrimido[4,5-b]indol-9-yl)acetyl)-N-(6-bromopyridin-2-yl)-2-azabicyclo[3.1.0]hexane-3-carboxamide]	< 0.1

More lines, now with the values ahead:

IC50 [µM]	SMILES
< 0.1	CNC(=O)c1ccc2c(c1)c1c(N)ncnc1n2CC(=O)N1[C@H](C(=O)Nc2cccc(Br)n2)C[C@@]2(C)C[C@@H]12 [Compound 196d, 4-amino-9-(2-((1R,3S,5R)-3-((6-bromopyridin-2-yl)carbamoyl)-5-methyl-2-azabicyclo[3.1.0]hexan-2-yl)-2-oxoethyl)-N-methyl-9H-pyrimido[4,5-b]indole-6-carboxamide]
< 0.1	C=Cc1ccc2c(c1)c1c(N)ncnc1n2CC(=O)N1[C@@H]2C[C@@H]2C[C@H]1C(=O)Nc1cccc(Br)n1 [Compound 59c, (1R,3S,5R)-2-(2-(4-amino-6-vinyl-9H-pyrimido[4,5-b]indol-9-yl)acetyl)-N-(6-bromopyridin-2-yl)-2-azabicyclo[3.1.0]hexane-3-carboxamide]
< 0.1	COc1cc([N+](=O)[O-])cc2c3c(N)ncnc3n(CC(=O)N3[C@H](C(=O)Nc4cccc(Br)n4)C[C@@]4(C)C[C@@H]34)c12 [Compound 243a, (1R,3S,5R)-2-(2-(4-amino-8-methoxy-6-nitro-9H-pyrimido[4,5-b]indol-9-yl)acetyl)-N-(6-bromopyridin-2-yl)-5-methyl-2-azabicyclo[3.1.0]hexane-3-carboxamide]
< 0.1	Nc1ncnc2c1c1nc(Br)ccc1n2CC(=O)N1[C@@H]2C[C@@H]2C[C@H]1C(=O)Nc1cccc(Br)n1 [Compound 290g, (1R,3S,5R)-2-(2-(4-amino-6-bromo-9H-pyrido[2′,3′:4,5]pyrrolo[2,3-d]pyrimidin-9-yl)acetyl)-N-(6-bromopyridin-2-yl)-2-azabicyclo[3.1.0]hexane-3-carboxamide]
< 0.1	CN(C)c1ccc2c(c1)c1c(N)ncnc1n2CC(=O)N1[C@H](C(=O)Nc2cccc(Br)n2)C[C@@]2(C)C[C@@H]12 [Compound 215g, (1R,3S,5R)-2-(2-(4-amino-6-(dimethylamino)-9H-pyrimido[4,5-b]indol-9-yl)acetyl)-N-(6-bromopyridin-2-yl)-5-methyl-2-azabicyclo[3.1.0]hexane-3-carboxamide]
< 0.1	COC(=O)c1ccc2c(c1)c1c(N)ncnc1n2CC(=O)N1[C@H](C(=O)Nc2cccc(Br)n2)C[C@@]2(C)C[C@@H]12 [Compound 40a, methyl 4-amino-9-(2-((1R,3S,5R)-3-((6-bromopyridin-2-yl)carbamoyl)-5-methyl-2-azabicyclo[3.1.0]hexan-2-yl)-2-oxoethyl)-9H-pyrimido[4,5-b]indole-6-carboxylate]
< 0.1	Nc1ncnc2c1ccn2CC(=O)N1[C@@H]2C[C@@H]2C[C@H]1C(=O)Nc1cccc(Br)n1 [Compound 80a, (1R,3S,5R)-2-(2-(4-amino-7H-pyrrolo[2,3-d]pyrimidin-7-yl)acetyl)-N-(6-bromopyridin-2-yl)-2-azabicyclo[3.1.0]hexane-3-carboxamide]
< 0.1	Cc1cc(C(F)(F)F)cc2c3c(N)ncnc3n(CC(=O)N3[C@H](C(=O)Nc4cccc(Cl)n4)C[C@@]4(C)C[C@@H]34)c12 [Compound 287a, (1R,3S,5R)-2-(2-(4-amino-8-methyl-6-(trifluoromethyl)-9H-pyrimido[4,5-b]indol-9-yl)acetyl)-N-(6-chloropyridin-2-yl)-5-methyl-2-azabicyclo[3.1.0]hexane-3-carboxamide]
< 0.1	Cc1cccc2c3c(N)ncnc3n(CC(=O)N3[C@@H]4C[C@@H]4C[C@H]3C(=O)Nc3cccc(Br)n3)c12 [Compound 30f, (1R,3S,5R)-2-(2-(4-amino-8-methyl-9H-pyrimido[4,5-b]indol-9-yl)acetyl)-N-(6-bromopyridin-2-yl)-2-azabicyclo[3.1.0]hexane-3-carboxamide]
